Patent US5986136A, “Photolabeling reagent” (President and Fellows of Harvard College, priority 1998, dated 1999)
Entries after “also recorded” stand apart in the source; their conditions may differ.

Key:
SPR in P388D1 cells [1] = target: T1, SPR in P388D1 cells (Mus musculus, UniProt P30548); test: Photoaffinity labeling of SPR in P388D1 cells; format: binding, murine; conditions: presence of excess unlabeled SP or CP-96,345
T1 construct: a nontransfected murine macrophage/monocyte cell line; endogenous in cells; host or cells: P388D1 (murine macrophage/monocyte cell line)
Method: P388D1 cells (5×10^6 cells/5 ml) were inoculated on FBS-pretreated dishes (60 mm) in DMEM with 10% FBS and grown overnight. The cultured cells (approximately 1×10^7) were incubated with protease inhibitors and 0.1% BSA for 30 min at room temperature (25° C.). The cells were then washed twice (5 ml) with ice-cold buffer (DMEM+20 mM HEPES, pH 6.7) and incubated with 5 ml of buffer on ice for at least 10 min, in the presence of protease inhibitors, and 0.1% BSA. […] The dishes were then frozen by placement on crushed dry ice. The frozen sample was irradiated under nitrogen for 2 h using a focused HBO 100-watt mercury short arc lamp through an optical filter to eliminate light below 310 nm. A second filter removed infrared wavelengths (>900 nm) to minimize sample heating during photolysis (Li et al., 1995a). Alternatively, the sample can be irradiated in a commerical photoreactor at 3500 Å.
After photolysis, the sample was thawed and any remaining attached cells were scraped from the bottom of the plate. The sample was transferred to microfuge tubes and centrifuged at 16,000 g for 30 min. The pelleted cells were hypotonically lysed by resuspending in 0.3 ml of 5 mM Tris-HCl, pH 8.0, for 15 min at room temperature. Then the samples were homogenized and centrifuged at 500 g for 15 min to remove debris. […]

SPR in P388D1 cells [2] = target: T1, SPR in P388D1 cells; format: binding, murine
Method: Percentage of tracer bound was determined by solubilization and counting after washing away excess unbound tracer. […] The data shown is the average of four experiments containing triplicate samples in each. IC50 is expressed as the mean±standard deviation of ≥4 experiments.
Protease inhibitors (0.004% bacitracin, 0.0002% chymostatin, 0.0004% leupeptin) and 0.1% BSA was added to the confluent cells (approximately 1×10^6 cells/well in DMEM and 10% FBS) and incubated for 30 min at room temperature (25° C.). The cells were then washed twice (0.5 ml/well) with ice-cold buffer (DMEM+20 mM HEPES, pH 7.2) and incubated with 0.5 ml of buffer on ice for at least 10 min in the presence of protease inhibitors and 0.1% BSA. […] After incubation, the cells were washed twice with 0.5 ml/well phosphate-buffered saline (104 mM NaCl, 2.7 mM KCl, 10 mM Na2 HPO4, 1.8 mM KH2 PO4, pH 7.2), then solubilized by 0.5 ml lysis buffer (1% Nonidet P-40, 0.2% SDS, 150 mM NaCl, 50 mM Tris, pH 8.0) for 20 min and transferred for gamma counting. […] Curve fitting was performed as described above.

[3] = target: anti-substance P antibody; test: Radioimmunoassay: displacement of [^125 I]BHSP from anti-substance P antibody; format: binding; conditions: for IC50: antibody dilution 1/160,000, [^125 I]BHSP 3.3 pM, 4° C. overnight, mean±standard deviation of ≥3 experiments
[4] = Retention of radioiodine during photolysis (model benzophenone); format: physicochemical; conditions: receptor photolabeling conditions, twice the photolysis time

T1 sequence (P30548 whole entry, one chain of several): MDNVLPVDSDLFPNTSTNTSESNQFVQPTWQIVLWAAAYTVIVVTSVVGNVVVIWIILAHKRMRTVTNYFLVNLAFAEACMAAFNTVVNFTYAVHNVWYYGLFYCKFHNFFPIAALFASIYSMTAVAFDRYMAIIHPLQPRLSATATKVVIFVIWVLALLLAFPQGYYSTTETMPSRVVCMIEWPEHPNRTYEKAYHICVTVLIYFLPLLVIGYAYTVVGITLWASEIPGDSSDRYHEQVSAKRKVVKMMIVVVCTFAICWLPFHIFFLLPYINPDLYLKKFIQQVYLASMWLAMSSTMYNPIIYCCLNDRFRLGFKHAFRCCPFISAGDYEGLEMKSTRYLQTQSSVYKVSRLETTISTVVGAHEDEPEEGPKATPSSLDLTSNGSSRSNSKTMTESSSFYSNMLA

With COc1ccccc1CN[C@H]1C2CCN(CC2)[C@H]1C(c1ccccc1)c1ccccc1 [CP-96,345, (2S, 3S)-cis-2-(diphenylmethyl)-N-[(2-methoxyphenyl)-methyl]-1-aza-bicyclo[2.2.2]octan-3-amine] the “inhibition of photolabeling by [^125 I]HBPA^8 -SP” value (SPR in P388D1 cells [1]) was “completely inhibited”.

Work on CSCC[C@H](NC(=O)[C@H](CC(C)C)NC(=O)CNC(=O)[C@@H](Cc1ccc(C(=O)c2ccc(O)cc2)cc1)NC(=O)[C@H](Cc1ccccc1)NC(=O)[C@H](CCC(N)=O)NC(=O)[C@H](CCC(N)=O)NC(=O)[C@@H]1CCCN1C(=O)[C@H](CCCCN)NC(=O)[C@@H]1CCCN1C(=O)[C@@H](N)CCCNC(=N)N)C(N)=O [D-HBPA^8 -SP] yielded an IC50 (SPR in P388D1 cells [2]; tracer 25 pM [^125 I]BHSP, 2 h on ice, mean±standard deviation of ≥4 experiments, read-out: IC50 for displacement of [^125 I]BHSP) of 1.5 ± 0.34 nM and an IC50 [3] of 0.39 ± 0.04 nM.

In the case of CSCC[C@H](NC(=O)[C@H](CC(C)C)NC(=O)CNC(=O)[C@H](Cc1ccc(C(=O)c2ccc(O)cc2)cc1)NC(=O)[C@H](Cc1ccccc1)NC(=O)[C@H](CCC(N)=O)NC(=O)[C@H](CCC(N)=O)NC(=O)[C@@H]1CCCN1C(=O)[C@H](CCCCN)NC(=O)[C@@H]1CCCN1C(=O)[C@@H](N)CCCNC(=N)N)C(N)=O [L-HBPA^8 -SP, ArgProLysProGlnGlnPhe(L-HBPA)GlyLeuMet-NH2], the “activity with both a SP specific antibody and SPR, receptor part (in words)” value (SPR in P388D1 cells [2]; first HPLC peak versus second) is reported as “more active than the second”, the “affinity / specificity for SPR (in words)” value (SPR in P388D1 cells [2]; murine SP receptor, P388D1 cells) is reported as “bind with high affinity and specificity to SPR; also recorded: a specific as well as a high affinity ligand for the receptor” and the IC50 [3] is reported as 0.052 ± 0.008 nM. For the same compound, the “affinity for anti-SP antiserum (in words)” value ([3]; compared with native SP or other diastereomer) was “binds to the antibody with a higher affinity” and the “activity with both a SP specific antibody and SPR, antibody part (in words)” value ([3]; first HPLC peak versus second) was “more active than the second”.

With CSCC[C@H](NC(=O)[C@H](CC(C)C)NC(=O)CNC(=O)[C@H](Cc1ccccc1)NC(=O)[C@H](Cc1ccccc1)NC(=O)[C@H](CCC(N)=O)NC(=O)[C@H](CCC(N)=O)NC(=O)[C@@H]1CCCN1C(=O)[C@H](CCCCN)NC(=O)[C@@H]1CCCN1C(=O)[C@@H](N)CCCNC(=N)N)C(N)=O [SP, reference compound] the IC50 [3] was 0.071 ± 0.006 nM.

In the case of O=C(c1ccccc1)c1ccc(O)c([125I])c1 [[^125 I]-3-iodo-4-hydroxybenzophenone], the “radioiodine remaining incorporated in the starting material after photolysis” value [4] is reported as “greater than 98%”.
